What was measured:
[1] = cited from earlier work
[2] = biological target: PCP site of the NMDA receptor; format: binding; conditions: read-out: [3H]TCP Ki; [3H]TCP as radioligand; rat brain membrane suspensions; mean from two experiments

CN(C(=N)Nc1cccc2ccccc12)c1cccc(I)c1 [Ligand 1]
measured logD [1]: 2.19

CN(C(=N)Nc1cccc2ccccc12)c1cccc(Cl)c1F [Ligand 34]
Ki [2]: 701 nM
